The results in this text go back to PubChem BioAssay AID1259407 (Chemical Carcinogenesis Research Information System (CCRIS), 2018).

The subject of this series is CCRIS mutagenicity, Ames/micronucleus/aberration tests. As to the kind of experiment: CCRIS mutagenicity studies.
Where [1] appears, read: Test System: AMES SALMONELLA TYPHIMURIUM, Strain/Indicator: TA97A, Metabolic Activation: NONE, Method: STANDARD PLATE.
Where [2] appears, read: Test System: AMES SALMONELLA TYPHIMURIUM, Strain/Indicator: TA98, Metabolic Activation: NONE, Method: STANDARD PLATE.
[3] abbreviates: Test System: AMES SALMONELLA TYPHIMURIUM, Strain/Indicator: TA98, Metabolic Activation: RAT, LIVER, S-9, AROCLOR 1254, Method: STANDARD PLATE.
Where [4] appears, read: Test System: AMES SALMONELLA TYPHIMURIUM, Strain/Indicator: TA100, Metabolic Activation: NONE, Method: STANDARD PLATE.
Setting [5] is: Test System: AMES SALMONELLA TYPHIMURIUM, Strain/Indicator: TA100, Metabolic Activation: RAT, LIVER, S-9, AROCLOR 1254, Method: STANDARD PLATE.
The mark [6] stands for this setting: Test System: AMES SALMONELLA TYPHIMURIUM, Strain/Indicator: TA102, Metabolic Activation: NONE, Method: STANDARD PLATE.
Setting [7] is: Test System: AMES SALMONELLA TYPHIMURIUM, Strain/Indicator: TA1535, Metabolic Activation: NONE, Method: STANDARD PLATE.
Where [8] appears, read: Test System: AMES SALMONELLA TYPHIMURIUM, Strain/Indicator: TA1535, Metabolic Activation: RAT, LIVER, S-9, AROCLOR 1254, Method: STANDARD PLATE.
The mark [9] stands for this setting: Test System: AMES SALMONELLA TYPHIMURIUM, Strain/Indicator: TA1537, Metabolic Activation: NONE, Method: STANDARD PLATE.
Setting [10] is: Test System: AMES SALMONELLA TYPHIMURIUM, Strain/Indicator: TA1538, Metabolic Activation: NONE, Method: STANDARD PLATE.
Where [11] appears, read: Test System: AMES SALMONELLA TYPHIMURIUM, Strain/Indicator: TA1538, Metabolic Activation: RAT, LIVER, S-9, AROCLOR 1254, Method: STANDARD PLATE.

The source made the active and inactive calls. No rule for the calls is given here.

As to `CC(C)[C@@H]1CC[C@@H](C)C[C@H]1O`, the mutagenic call (Test System: AMES SALMONELLA TYPHIMURIUM, Strain/Indicator: TA97, Metabolic Activation: NONE, Method: PREINCUBATION) is “inactive; negative”; the mutagenic call (Test System: AMES SALMONELLA TYPHIMURIUM, Strain/Indicator: TA97, Metabolic Activation: RAT, LIVER, S-9, AROCLOR 1254, Method: PREINCUBATION) is “inactive; negative”; the mutagenic call under setting [1] was “inactive; negative”; the mutagenic call (Test System: AMES SALMONELLA TYPHIMURIUM, Strain/Indicator: TA97A, Metabolic Activation: RAT LIVER S-9, AROCLOR 1254, Method: STANDARD PLATE) is “inactive; negative”; the mutagenic call under setting [2] is “inactive; negative”; the mutagenic call (Test System: AMES SALMONELLA TYPHIMURIUM, Strain/Indicator: TA98, Metabolic Activation: RAT LIVER S-9, AROCLOR 1254, Method: STANDARD PLATE) is “inactive; negative”. Moreover, the mutagenic call is “inactive; negative” under setting [3]; “inactive; negative” under setting [4]; “inactive; negative” (Test System: AMES SALMONELLA TYPHIMURIUM, Strain/Indicator: TA100, Metabolic Activation: RAT LIVER S-9, AROCLOR 1254, Method: STANDARD PLATE); “inactive; negative” under setting [5]; “inactive; negative” (Test System: AMES SALMONELLA TYPHIMURIUM, Strain/Indicator: TA102, Metabolic Activation: NONE, Method: PREINCUBATION); “inactive; negative” under setting [6]. The mutagenic call reads like this: (Test System: AMES SALMONELLA TYPHIMURIUM, Strain/Indicator: TA102, Metabolic Activation: RAT LIVER S-9, AROCLOR 1254, Method: STANDARD PLATE) “inactive; negative”; (Test System: AMES SALMONELLA TYPHIMURIUM, Strain/Indicator: TA102, Metabolic Activation: RAT, LIVER, S-9, AROCLOR 1254, Method: PREINCUBATION) “inactive; negative”; under setting [7], “inactive; negative”; under setting [8], “inactive; negative”; under setting [9], “inactive; negative”; (Test System: AMES SALMONELLA TYPHIMURIUM, Strain/Indicator: TA1537, Metabolic Activation: RAT, LIVER, S-9, AROCLOR 1254, Method: STANDARD PLATE) “inactive; negative”.
Consider `O=C(O)CC[C@H](NC(=O)COc1cc(Cl)c(Cl)cc1Cl)C(=O)O`, for which the mutagenic call was “inactive; negative” (Test System: AMES SALMONELLA TYPHIMURIUM, Strain/Indicator: TA97, Metabolic Activation: NONE, Method: STANDARD PLATE); “inactive; negative” (Test System: AMES SALMONELLA TYPHIMURIUM, Strain/Indicator: TA97, Metabolic Activation: RAT, LIVER, S-9, AROCLOR 1254, Method: STANDARD PLATE); “inactive; negative” under setting [2]; “inactive; negative” under setting [3]; “inactive; negative” under setting [4]; “inactive; negative” under setting [5]. Moreover, the mutagenic call runs as follows: under setting [7], “inactive; negative”; under setting [8], “inactive; negative”; under setting [10], “inactive; negative”; under setting [11], “inactive; negative”.
As to `O=[N+]([O-])c1ccc(CN2C3c4ccccc4-c4ccccc4C32)cc1` (stereo not drawn), the mutagenic call under setting [4] is “active; positive”.
As to `Fc1cccc2ccc3ncccc3c12`, the mutagenic call (Test System: AMES SALMONELLA TYPHIMURIUM, Strain/Indicator: TA100, Metabolic Activation: RAT, LIVER, S-9, PHENOBARBITAL AND 5,6-BENZOFLAVONE, Method: PREINCUBATION) is “active; positive”.
In the case of `CC(=O)O[C@H]1CC[C@@]2(C)C(=CC[C@H]3[C@@H]4CC[C@H]([C@H](C)CCCC(C)C)[C@@]4(C)CC[C@@H]32)C1`, the mutagenic call is “inactive; negative” under setting [1]; “inactive; negative” (Test System: AMES SALMONELLA TYPHIMURIUM, Strain/Indicator: TA97A, Metabolic Activation: RAT, LIVER, S-9, AROCLOR 1254, Method: STANDARD PLATE); “inactive; negative” under setting [4]; “inactive; negative” under setting [5]; “inactive; negative” under setting [6]; “inactive; negative” (Test System: AMES SALMONELLA TYPHIMURIUM, Strain/Indicator: TA102, Metabolic Activation: RAT, LIVER, S-9, AROCLOR 1254, Method: STANDARD PLATE). The mutagenic call was “inactive; negative” (Test System: AMES SALMONELLA TYPHIMURIUM, Strain/Indicator: TA104, Metabolic Activation: NONE, Method: STANDARD PLATE) and “inactive; negative” (Test System: AMES SALMONELLA TYPHIMURIUM, Strain/Indicator: TA104, Metabolic Activation: RAT, LIVER, S-9, AROCLOR 1254, Method: STANDARD PLATE).
Turning to `O=C(O)c1ccccc1C1=c2cc3c4c(c2Oc2c1cc1c5c2CCCN5CCC1)CCC[N+]=4CCC3`, the mutagenic call is, setting by setting: under setting [10], “inactive; negative”; under setting [11], “inactive; negative”.
Take `O=c1oc2c(O)c(O)cc3c(=O)oc4c(O)c(O)cc1c4c23`: the mutagenic call (Test System: AMES SALMONELLA TYPHIMURIUM, Strain/Indicator: TA98, Metabolic Activation: NONE, Method: PREINCUBATION) was “inactive; negative”; the mutagenic call (Test System: AMES SALMONELLA TYPHIMURIUM, Strain/Indicator: TA98, Metabolic Activation: RAT LIVER S-9, Method: PREINCUBATION) was “inactive; negative”; the mutagenic call (Test System: AMES SALMONELLA TYPHIMURIUM, Strain/Indicator: TA100, Metabolic Activation: NONE, Method: PREINCUBATION) was “inactive; negative”; the mutagenic call (Test System: AMES SALMONELLA TYPHIMURIUM, Strain/Indicator: TA100, Metabolic Activation: RAT LIVER S-9, Method: PREINCUBATION) was “inactive; negative”; the mutagenic call (Test System: Ames Salmonella typhimurium, Strain/Indicator: TA102, Metabolic Activation: None, Method: Preincubation) is “inactive; negative”; the mutagenic call (Test System: Ames Salmonella typhimurium, Strain/Indicator: TA102, Metabolic Activation: Rat, Liver, S-9, Aroclor 1254 in 0.154 M KCl, Method: Preincubation) is “inactive; negative”. The mutagenic call by setting is: (Test System: E. COLI, Strain/Indicator: WP2, Metabolic Activation: RAT, LIVER, S-9, AROCLOR 1254, Method: STANDARD PLATE) “inactive; negative”; (Test System: MOUSE LYMPHOMA, Strain/Indicator: L5178Y (TK+/TK-), Metabolic Activation: NONE, Method: SUSPENSION/PLATE) “inactive; negative. reevaluation of results: negative”; (Test System: MOUSE LYMPHOMA, Strain/Indicator: L5178Y (TK+/TK-), Metabolic Activation: RAT, LIVER, S-9, AROCLOR 1254, Method: SUSPENSION/PLATE) “inactive; negative. reevaluation of results: inconclusive”.
As for `Nc1snc2c(Cl)cc(Cl)cc12`, the mutagenic call reads like this: under setting [2], “inactive; negative”; (Test System: AMES SALMONELLA TYPHIMURIUM, Strain/Indicator: TA98, Metabolic Activation: S-9, Method: STANDARD PLATE) “inactive; negative”; under setting [4], “inactive; negative”; (Test System: AMES SALMONELLA TYPHIMURIUM, Strain/Indicator: TA100, Metabolic Activation: S-9, Method: STANDARD PLATE) “active; positive”; under setting [7], “inactive; negative”; (Test System: AMES SALMONELLA TYPHIMURIUM, Strain/Indicator: TA1535, Metabolic Activation: S-9, Method: STANDARD PLATE) “inactive; negative”. Further, the mutagenic call is, setting by setting: under setting [9], “inactive; negative”; (Test System: AMES SALMONELLA TYPHIMURIUM, Strain/Indicator: TA1537, Metabolic Activation: S-9, Method: STANDARD PLATE) “active; positive”.
Turning to `Cc1ccc(Cl)c(N)c1`, for the setting “Test System: UDS RODENT HEPATOCYTES, Strain/Indicator: THY INCORP (NON-S-PHASE), Metabolic Activation: NONE, Method: AUTORADIOGRAPHY”, the mutagenic call is “inactive; negative”.
